Assay results reported in patent publication US9221827B2, “Antimicrobial compounds and methods of making and using the same” (Melinta Therapeutics, Inc., priority 2011, dated 2015).

Tested on: Escherichia coli strain ATCC25922
Assay: standard microdilution assay to determine minimum inhibitory concentrations (MICs)
Assay type: cell-based
How it was run: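 MICs come from CLSI-guided microdilution in 100 μl, run alongside reference-strain performance standards. Values appear as "+" or "−" relative to 16 micrograms/ml, with "N/A" marking missing data.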

[1] = Escherichia coli strain ATCC25922, microdilution
[2] = Escherichia coli strain ATCC25922, standard microdilution assay

Row | Compound | E. coli ATCC25922 MIC [1] | E. coli ATCC25922 MIC [2]
1 | CC(C)(CN)CCc1cc(OC(F)(F)F)cc(-c2cc3cn(-c4ccc(CNCCCNC(=N)N)cc4)c(=O)nc3[nH]2)c1 [Compound 104] | + (a “+” indicates that the compound has an MIC value of 16 micrograms/ml or less) | 
2 | CC(N)CCCc1cc(-c2cc3cn(-c4ccc(C(C)NCCCNC(=N)N)cc4)c(=O)nc3[nH]2)c(F)c(C(F)(F)F)c1 (stereo not shown) [Compound 274] | + (a “+” indicates that the compound has an MIC value of 16 micrograms/ml or less) | 
3 | C=CC(NCCCNC(=N)N)c1ccc(-n2cc3cc(-c4cc(CCCC(C)N)cc(C(F)(F)F)c4)[nH]c3nc2=O)cc1 (stereo not shown) [Compound 501] | + (a “+” indicates that the compound has an MIC value of 16 micrograms/ml or less) | 
4 | CCN=C(N)NCCCNC(C)c1ccc(-n2cc3cc(-c4cc(CCCC(C)N)cc(Cl)c4F)[nH]c3nc2=O)cc1 (stereo not shown) [Compound 362] |  | + (a “+” indicates that the compound has an MIC value of 16 micrograms/ml or less)
5 | N=C(N)NCCCNCc1ccc(-n2cc3cc(-c4cc(CC[C@@H](O)CN)cc(OC(F)(F)F)c4)[nH]c3nc2=O)cc1 [Compound 238] | + (a “+” indicates that the compound has an MIC value of 16 micrograms/ml or less) | 
6 | N=C(N)NCCCNCc1ccc(-n2cc3cc(-c4cc(CCC5(CN)CC5)cc(OC(F)(F)F)c4)[nH]c3nc2=O)cc1 [Compound 137] | + (a “+” indicates that the compound has an MIC value of 16 micrograms/ml or less) | 
7 | N=C(N)NCCCNCc1ccc(-n2cc3cc(-c4cc(CS(=O)(=O)CCN)cc(OC(F)(F)F)c4)[nH]c3nc2=O)cc1 [Compound 16] | + (a “+” indicates that the compound has an MIC value of 16 micrograms/ml or less) | 
8 | N=C(N)NCCCNCc1ccc(-n2cc3cc(-c4cc(CCCN)cc(OC(F)(F)F)c4Cl)[nH]c3nc2=O)cc1 [Compound 225] | + (a “+” indicates that the compound has an MIC value of 16 micrograms/ml or less) | 
9 | C=CC[C@H](NCCCNC(=N)N)c1ccc(-n2cc3cc(-c4cc(CCC[C@H](C)N)cc(C(F)(F)F)c4)[nH]c3nc2=O)cc1 [Compound 474] | + (a “+” indicates that the compound has an MIC value of 16 micrograms/ml or less) | 
10 | CC(N)CCCc1cc(SC(F)(F)F)cc(-c2cc3cn(-c4ccc(C5(NCCCNC(=N)N)CC5)cc4)c(=O)nc3[nH]2)c1 (stereo not shown) [Compound 500] | + (a “+” indicates that the compound has an MIC value of 16 micrograms/ml or less) | 
11 | C[C@H](N)c1ccc(-n2cc3cc(-c4cc(CCC5(CN)CC5)cc(SC(F)(F)F)c4)[nH]c3nc2=O)cc1 [Compound 358] |  | − (a “−” indicates that the compound has an MIC value greater than 16 micrograms/ml)
12 | N=C(N)NCCCNCc1ccc(-n2cc3cc(-c4cc(CCCN)cc(Cl)c4F)[nH]c3nc2=O)cc1 [Compound 228] | + (a “+” indicates that the compound has an MIC value of 16 micrograms/ml or less) | 
13 | N=C(N)NCCCNCc1ccc(-n2cc3cc(-c4cc(CCC5(CN)CC5)cc(F)c4Cl)[nH]c3nc2=O)cc1 [Compound 223] | + (a “+” indicates that the compound has an MIC value of 16 micrograms/ml or less) | 
14 | NC(N)=NCCCNCc1ccc(-n2cc3cc(-c4cc(CCCO)ccc4Cl)[nH]c3nc2=O)cc1 [Compound 82] | + (a “+” indicates that the compound has an MIC value of 16 micrograms/ml or less) | 
15 | CCc1cc(CCCCN)cc(-c2cc3cn(-c4ccc(CNCCCNC(=N)N)cc4)c(=O)nc3[nH]2)c1C(F)(F)F [Compound 233] | + (a “+” indicates that the compound has an MIC value of 16 micrograms/ml or less) | 
16 | N=C(N)NCCCNCc1ccc(-n2cc3cc(-c4c(Cl)ccc(CCCCN)c4Cl)[nH]c3nc2=O)cc1 [Compound 10] | + (a “+” indicates that the compound has an MIC value of 16 micrograms/ml or less) | 
17 | CC(N)CCCc1cc(-c2cc3cn(-c4ccc(CNCCCNC(=N)N)cc4)c(=O)nc3[nH]2)c(F)c(Cl)c1F (stereo not shown) [Compound 499] | + (a “+” indicates that the compound has an MIC value of 16 micrograms/ml or less) | 
18 | CC(NCCCNC(=N)N)c1ccc(-n2cc3cc(-c4cc(CCCC(N)CO)cc(Cl)c4F)[nH]c3nc2=O)cc1 (stereo not shown) [Compound 391] |  | + (a “+” indicates that the compound has an MIC value of 16 micrograms/ml or less)
19 | N=C(N)NCCCNCc1ccc(-n2cc3cc(-c4cc(CCCCN)ccc4F)[nH]c3nc2=O)cc1F [Compound 54] | + (a “+” indicates that the compound has an MIC value of 16 micrograms/ml or less) | 
20 | CC(NCCCNC(=N)N)c1ccc(-n2cc3cc(-c4cc(OC(F)(F)F)cc(C5CCC(CN)O5)c4)[nH]c3nc2=O)cc1 (stereo not shown) [Compound 436] |  | + (a “+” indicates that the compound has an MIC value of 16 micrograms/ml or less)
21 | NCc1cc(CCCO)cc(-c2cc3cn(-c4ccc(CNCCCN=C(N)N)cc4)c(=O)nc3[nH]2)c1 [Compound 79] | + (a “+” indicates that the compound has an MIC value of 16 micrograms/ml or less) | 
22 | N=C(N)NCCCNCc1ccc(-n2cc3cc(-c4cc(CC5CC(N)C5)cc(C(F)(F)F)c4)[nH]c3nc2=O)cc1 (stereo not shown) [Compound 324] | + (a “+” indicates that the compound has an MIC value of 16 micrograms/ml or less) | 

Row | Compound | E. coli ATCC25922 MIC [1] | E. coli ATCC25922 MIC [2]
23 | CN=C(N)NCCCNCc1ccc(-n2cc3cc(-c4cc(CCCC(C)N)cc(Cl)c4F)[nH]c3nc2=O)cc1 (stereo not shown) [Compound 382] |  | + (a “+” indicates that the compound has an MIC value of 16 micrograms/ml or less)
24 | CC(C)(N)CCCc1cc(Cl)c(F)c(-c2cc3cn(-c4ccc(CNCCCNC(=N)N)cc4)c(=O)nc3[nH]2)c1 [Compound 295] | + (a “+” indicates that the compound has an MIC value of 16 micrograms/ml or less) | 
25 | CC[C@H](NCCCNC(=N)N)c1ccc(-n2cc3cc(-c4cc(CCC[C@H](C)N)cc(Cl)c4F)[nH]c3nc2=O)cc1 [Compound 392] |  | + (a “+” indicates that the compound has an MIC value of 16 micrograms/ml or less)
26 | C=C[C@H](NCCCNC(=N)N)c1ccc(-n2cc3cc(-c4cc(CCC[C@H](C)N)cc(SC(F)(F)F)c4)[nH]c3nc2=O)cc1 [Compound 473] | + (a “+” indicates that the compound has an MIC value of 16 micrograms/ml or less) | 
27 | NCCCCc1cc(F)c(Cl)c(-c2cc3cn(-c4ccc(CNCCCN=C(N)N)c(F)c4)c(=O)nc3[nH]2)c1 [Compound 71] | + (a “+” indicates that the compound has an MIC value of 16 micrograms/ml or less) | 
28 | CC(N)CCCc1cc(Cl)c(F)c(-c2cc3cn(-c4ccc(CN(C)CCCNC(=N)N)cc4)c(=O)nc3[nH]2)c1 (stereo not shown) [Compound 379] |  | + (a “+” indicates that the compound has an MIC value of 16 micrograms/ml or less)
29 | NCCC[C@@H](O)c1cc(OC(F)(F)F)cc(-c2cc3cn(-c4ccc(CNCCCN=C(N)N)cc4)c(=O)nc3[nH]2)c1 [Compound 76] | + (a “+” indicates that the compound has an MIC value of 16 micrograms/ml or less) | 
30 | CCOc1cc(CCCCN)cc(-c2cc3cn(-c4ccc(CNCCCNC(=N)N)cc4)c(=O)nc3[nH]2)c1F [Compound 245] | + (a “+” indicates that the compound has an MIC value of 16 micrograms/ml or less) | 
31 | N=C(N)NCCCNCc1ccc(-n2cc3cc(-c4cc(CC5CC(N)C5)cc(Cl)c4F)[nH]c3nc2=O)cc1 (stereo not shown) [Compound 333] |  | + (a “+” indicates that the compound has an MIC value of 16 micrograms/ml or less)
32 | N=C(N)NCCCNCc1ccc(-n2cc3cc(-c4cc(C(O)CCCN)cc(C(F)(F)F)c4)[nH]c3nc2=O)cc1 (stereo not shown) [Compound 29] | + (a “+” indicates that the compound has an MIC value of 16 micrograms/ml or less) | 
33 | CC(N)CCCc1cc(-c2cc3cn(-c4ccc(C(NCCCNC(=N)N)C(=O)O)cc4)c(=O)nc3[nH]2)cc(C(F)(F)F)c1 (stereo not shown) [Compound 497] | − (a “−” indicates that the compound has an MIC value greater than 16 micrograms/ml) | 
34 | C[C@H](NCCCNC(=N)N)c1ccc(-n2cc3cc(-c4cc(CC5CC(N)C5)cc(C(F)(F)F)c4)[nH]c3nc2=O)cc1 (stereo partly shown) [Compound 325] | + (a “+” indicates that the compound has an MIC value of 16 micrograms/ml or less) | 
35 | CC(N)CCCc1cc(OC(F)(F)F)cc(-c2cc3cn(-c4ccc(C(C)N)cc4)c(=O)nc3[nH]2)c1 (stereo not shown) [Compound 356] |  | − (a “−” indicates that the compound has an MIC value greater than 16 micrograms/ml)
36 | COC[C@H](N)CCCc1cc(Cl)c(F)c(-c2cc3cn(-c4ccc(CNCCCNC(=N)N)cc4)c(=O)nc3[nH]2)c1 [Compound 445] |  | + (a “+” indicates that the compound has an MIC value of 16 micrograms/ml or less)
37 | CC(N)CCCc1cccc(-c2cc3cn(-c4ccc(C(C)NCCCNC(=N)N)cc4)c(=O)nc3[nH]2)n1 (stereo not shown) [Compound 369] |  | + (a “+” indicates that the compound has an MIC value of 16 micrograms/ml or less)
38 | C[C@H](N)COCc1cc(-c2cc3cn(-c4ccc(CNCCCNC(=N)N)cc4)c(=O)nc3[nH]2)cc(C(F)(F)F)c1 [Compound 323] | + (a “+” indicates that the compound has an MIC value of 16 micrograms/ml or less) | 
39 | C[C@H](NCCCNC(=N)N)c1ccc(-n2cc3cc(-c4cc(CSC(C)(C)CN)cc(SC(F)(F)F)c4)[nH]c3nc2=O)cc1 [Compound 377] |  | + (a “+” indicates that the compound has an MIC value of 16 micrograms/ml or less)
40 | CC(N)CCCc1cc(-c2cc3cn(-c4ccc(C(CCO)NCCCNC(=N)N)cc4)c(=O)nc3[nH]2)cc(C(F)(F)F)c1 (stereo not shown) [Compound 505] | + (a “+” indicates that the compound has an MIC value of 16 micrograms/ml or less) | 
41 | C[C@H](N)CCCc1cc(-c2cc3cn(-c4ccc(CNCCCNC(=N)N)cc4)c(=O)nc3[nH]2)cc(C(F)(F)F)c1 [Compound 248] | + (a “+” indicates that the compound has an MIC value of 16 micrograms/ml or less) | 
42 | CC(C)c1cc(CCCCN)cc(-c2cc3cn(-c4ccc([C@H](C)NCCCNC(=N)N)cc4)c(=O)nc3[nH]2)c1 [Compound 78] | + (a “+” indicates that the compound has an MIC value of 16 micrograms/ml or less) | 
43 | CC(CCN)Cc1cc(Cl)c(F)c(-c2cc3cn(-c4ccc(CNCCCNC(=N)N)cc4)c(=O)nc3[nH]2)c1 (stereo not shown) [Compound 132] | + (a “+” indicates that the compound has an MIC value of 16 micrograms/ml or less) | 
